Read-outs that look alike come from different tables or passages of the source. Where no end group is shown, it is not given here.
Columns and labels:
[1] = test system: carbapenem-resistant K. pneumoniae strain (ATCC BAA-1705); type: cell-based, Klebsiella pneumoniae; conditions: for Antibacterial activity against CRKP (in words): CA-MHB, high salt test conditions; for MIC (μM) / MIC (μg/mL): ATCC BAA-1705
Experimental: Klebsiella pneumoniae ATCC BAA-1705 was purchased from the American Type Culture Collection (Manassas, VA) and grown in Cation-Adjusted Mueller Hinton Broth. Bacteria were aliquoted and frozen at −80° C. with 20% glycerol and enumerated via serial dilution and plating prior to experimentation.
The minimum inhibitory concentration (MIC) of the peptides was determined according to Clinical & Laboratory Standards Institute (CLSJ) guidelines. Bacteria were grown overnight on Cation-adjusted Mueller Hinton Agar (BD 211438, CAMHA) at 37° C. Assays were performed in Cation-adjusted Mueller Hinton Broth (BD 212322, CAMHB) in polypropylene 96 well plates (Corning 3879). Each experiment was performed with three replicates at least three times.

CRKP infected waxworms = assay: Waxworm infection model (CRKP infected G. mellonella); type: in vivo, Galleria mellonella
Experimental: FIG. 5 is a graph showing waxworm survival curves. Waxworms were injected with 10 μL containing 5×10^5 CFU in their rear left proleg. The waxworms were allowed to recover for 30 minutes at 37° C. They were injected with 10 μL containing the various treatments. They were kept at 37° C. and scored for survival every 24 hours. Each group contained 10 waxworms.
Galleria mellonella larvae were obtained from Vanderhorst Wholesale (Saint Marys, OH, USA). 10 larvae weighing between 250 and 300 mg were randomly assigned to each group. Waxworms were injected with 10 μL containing […] suspended in DPBS in their rear left proleg. The waxworms were then allowed to recover for 30 minutes at 37° C. They were then injected with 10 μL DPBS containing the various treatments into their rear right proleg. They were then kept at 37° C. and scored for survival every 24 hours.
(§1) We tested these antimicrobial peptides in the waxworm, G. mellonella.

[2] = test system: K. pneumoniae strain ATCC BAA-1705; assay: DiSC3(5) membrane depolarization assay; type: cell-based, Klebsiella pneumoniae; conditions: PBS, 100, 10 and 1 μg/ml, 20 min
Experimental: FIGS. 2A-2B are graphs showing (A) membrane disruption as measured by ethidium bromide uptake against K. pneumoniae strain ATCC BAA-1705 in PBS at 50 μg/ml. Δ RFU shown is after 20 min incubation, done twice in triplicate. A one-way ANOVA with multiple comparisons was performed to determine statistical significance (* p<0.05; ** p<0.01; *** p<0.001); and (B) membrane depolarization Membrane depolarization was measures using 3,3′-dipropylthiadicarbocyanine iodide (DiSC3(5)) against K. pneumoniae strain ATCC BAA-1705 in PBS at 100, 10 and 1 μg/ml. Δ RFU shown is after 20 min incubation, done twice in triplicate. DRGN-6 refers to SEQ ID NO:6, DRGN-7 refers to SEQ ID NO:6 with N-terminus acetylated, DRGN-8 refers to SEQ ID NO:7, NACATH refers to SEQ ID NO:9.
Membrane depolarization was measured using DiSC3(5) (3,3′-dipropylthiadicarbocyanine iodide) as previously described with some modifications. Stocks of enumerated frozen Klebsiella pneumonia ATCC BAA-1705 were pelleted and washed twice in phosphate buffered saline (PBS) and then resuspended to 4×10^7 CFU/ml in PBS containing 50 μg/ml DiSC3(5). […] The plate was incubated in a fluorescence spectrophotometer (Tecan Infinite 200) and monitored until fluorescence stopped decreasing. […] Readings were taken at 20 minutes after addition of peptide (excitation=635 nm; emission=670 nm). […]

G. mellonella = test system: G. mellonella; parameters: species or system Galleria mellonella; conditions: in vivo
Excerpt: as §1

[3] = Circular dichroism spectroscopy, percent alpha-helicity; type: physicochemical; conditions: 100 μg/mL peptide
Experimental: Circular dichroism (CD) analysis of the peptides was performed using a Jasco J-1500 spectropolarimeter. 100 μg/mL of peptide was used in each experiment. Samples were allowed to equilibrate for 5 min prior to data collection at 25° C. in a 1 mm path length cuvette. Spectra were collected from 190 to 260 nm with at 20 nm/min, a data integration time of 4 seconds and a 1 nm bandwidth. Data shown represents the average of four spectra. The peptides were analyzed in 10 mM sodium phosphate buffer (6.12 mM sodium monohydrogen phosphate heptahydrate; 3.92 mM monosodium phosphate anhydrous; pH 7.4), 50% (v/v) trifluoroethanol (TFE) in phosphate buffer, or 60 mM sodium dodecyl sulfate (SDS) in phosphate buffer. Percent contribution to secondary structure was measured using methods described in Raussens, V. et al. (Analytical Biochemistry, 319(1):114-21 (2003)).
The secondary structures of many CAMPs are disordered in the absence of anionic membranes or micelles, but adopt more defined secondary structures in their presence. To detect and measure any changes that the DRGN peptides may undergo based on environment, we studied their structural properties in 10 mM phosphate buffer as a negative control, 60 mM SDS in 10 mM phosphate buffer and 50% 2,2,2-Trifluoroethanol (TFE) in 10 mM phosphate buffer. Phosphate buffer without SDS or TFE provided an environment for studying the conformational properties of the peptides structure in the absence a micelle or membrane. Sodium dodecyl sulfate is an anionic surfactant that can form micelles in aqueous buffers mimicking bacterial membranes and simulating the effects an anionic membrane can have on the conformations of antimicrobial peptides. Addition of trifluoroethanol to aqueous buffer promotes increased structure, usually helicity, in peptides with suitable sequences.

Compound	MIC (μM) ([1]; CLSI protocol in CA-MHB)	MIC (μg/mL) ([1]; CLSI protocol in CA-MHB)	MIC (μM) [1]	MIC (μg/mL) [1]	also measured
CC[C@H](C)[C@H](NC(=O)[C@H](CCCCN)NC(=O)[C@H](CCC(=O)O)NC(=O)[C@H](CCCCN)NC(=O)[C@H](CO)NC(=O)[C@H](CCCCN)NC(=O)[C@H](CCCNC(=N)N)NC(=O)[C@H](Cc1ccccc1)NC(=O)[C@H](Cc1ccccc1)NC(=O)[C@H](CC(=O)O)NC(=O)CNC(=O)[C@H](CC(C)C)NC(=O)[C@@H](N)CC(C)C)C(=O)NCC(=O)N[C@@H](CCCCN)C(=O)N[C@@H](CCC(=O)O)C(=O)N[C@@H](Cc1ccccc1)C(=O)N[C@@H](CCCCN)C(=O)N[C@@H](CCCNC(=N)N)C(=O)N[C@H](C(=O)N[C@H](C(=O)N[C@@H](CCC(N)=O)C(=O)N[C@@H](CCCNC(=N)N)C(=O)N[C@H](C(=O)N[C@@H](CCCCN)C(=O)N[C@@H](CC(=O)O)C(=O)N[C@@H](Cc1ccccc1)C(=O)N[C@@H](CC(C)C)C(=O)N[C@@H](CCCNC(=N)N)C(=O)N[C@@H](CC(N)=O)C(=O)N[C@@H](CC(C)C)C(=O)N[C@H](C(=O)N1CCC[C@H]1C(=O)N[C@@H](CCCNC(=N)N)C(=O)N[C@H](C(=O)N[C@@H](CCC(=O)O)C(=O)N[C@@H](CO)C(=O)O)[C@@H](C)O)C(C)C)[C@@H](C)CC)C(C)C)[C@@H](C)CC [LL-37, reference compound]	>14 µM	>64 µg/mL			Antibacterial activity against CRKP (in words) [1]: very little antibacterial activity
CN(C)c1cc(NC(=O)CNC(C)(C)C)c(O)c2c1C[C@H]1C[C@H]3[C@H](N(C)C)C(O)=C(C(N)=O)C(=O)[C@@]3(O)C(O)=C1C2=O [tigecycline, reference compound]					Survival of CRKP infected caterpillars (CRKP infected waxworms; control antibiotic injected): 100%
Ac-FRWRRFFRKAKRFLKRHAVSIAIGTVRLLRRFG-NH2 [DRGN-3]	7.6 µM	32 µg/mL			
Ac-FRWRRFFRKAKRFLKRHGVSIAIGTVRLLRRFG-NH2 [DRGN-5]	7.7 µM	32 µg/mL			
Colistin [reference compound]	3.46 µM	4 µg/mL			
FRWRRFFRKAKRFLKRHGVSIAIGTVRLLRRFG [VK-CATH4.1]	7.7 µM	32 µg/mL			
H-FRWRRFFRKAKRFLKRHAVSIAIGTVRLLRRFG-OH [DRGN-2]	7.7 µM	32 µg/mL			
H-RRWRRFFQKAKRLLRRFG-NH2 [DRGN-7]			1.6 µM	4 µg/mL	Membrane depolarization, DiSC3(5) [2]: significant depolarization at all concentrations tested; Toxicity of peptide alone in waxworm (G. mellonella): none of the peptides DRGN-6, -7 and -8 alone caused toxicity; Change of MIC compared to DRGN-6 ([1]; increase = decreased effectiveness): no effect on MIC; Survival benefit in CRKP infected waxworms (CRKP infected waxworms; single injection 30 min after infection): no survival benefit was observed; Percent alpha-helicity, 10 mM phosphate buffer ([3]; 10 mM phosphate buffer): 3.0%; Percent alpha-helicity, SDS ([3]; 60 mM SDS in 10 mM phosphate buffer): 77.0%; Percent alpha-helicity, TFE ([3]; 50% TFE in 10 mM phosphate buffer): 72.6%
RRWRRFFQKAKRFVKRHGVSIAVGAYRIIG [VK-CATH4.2]		32 µg/mL	8.7 µM		
RRWRRFFQKAKRLLRRFG [DRGN-6]			1.6 µM	4 µg/mL	Toxicity of peptide alone in waxworm (G. mellonella): none of the peptides DRGN-6, -7 and -8 alone caused toxicity
RRWRRFFRKAKRIIG-NH2 [DRGN-11]			>31 µM	>64 µg/mL	Antibacterial activity against CRKP (in words) [1]: virtually inactive
RRWRRFFRKAKRIIG-OH [DRGN-10]			>31 µM	>64 µg/mL	Antibacterial activity against CRKP (in words) [1]: virtually inactive
RRWRRFFRKAKRLLRRFG [DRGN-8]			3.2 µM	8 µg/mL	Toxicity of peptide alone in waxworm (G. mellonella): none of the peptides DRGN-6, -7 and -8 alone caused toxicity
RRWRRFFRKAKRLLRRFG-NH2 [DRGN-9]			6.4 µM	16 µg/mL	Increase in MIC compared to unmodified counterpart DRGN-8 ([1]; C-terminal amidation, decreased effectiveness): 2 fold
